Source: US20130184302A1, “METHODS FOR TREATING IRRITABLE BOWEL SYNDROME (IBS) AND INFECTIONS” (priority 2011, published 2013)

Assays:
[1] = test system: C. difficile infection (CDI); experiment: CDI trial: efficacy adjusting for concomitant medication usage; type: in vivo, human
Text: Table 48 sets forth the efficacy adjusting for concomitant medication usage.

[2] = test system: patients with cirrhosis and overt HE episodes; experiment: Rates of commonly-occurring infections and antibiotic use in cirrhotic patients with HE on long-term rifaximin; type: in vivo
Text: Cirrhosis patients can have an increased risk of infections and subsequent hospitalizations, leading to increased mortality. […] A description of the OLM and RCT can be found in WO 2011/005388, “METHODS OF TREATING HEPATIC ENCEPHALOPATHY,” which is incorporated herein by reference in its entirety. In the analysis below, the effect of long term RFX treatment on infection rates and antibiotic use was examined.
Patients with cirrhosis and ≧2 overt HE episodes within 12 months were enrolled in the RCT (RFX=140; placebo [PBO]=159); 170 new patients, in addition to 70 RFX and 82 PBO patients who rolled over from the RCT were enrolled in OLM. The “All RFX group” (n=392) consisted of RFX-treated patients in both studies. Infection rates per person exposure years (PEY) were compared across RCT and All RFX groups, and antibiotic use over time was examined.
In the 6 month RCT, RFX exposure was 50 PEY vs 46 PEY in the PBO group. Long term RFX exposure was for median =427 (2-1427) days, or 510 PEY.

[3] = test system: C. difficile infection (CDI); experiment: CDI trial: subgroup analysis of diarrhea at TOC; type: in vivo, human; settings: for Diarrhea, number of subjects / Diarrhea, percent of subjects / No Diarrhea, number of subjects / No Diarrhea, percent of subjects: at TOC; for Diarrhea at TOC: Treatment Difference: Rifaximin vs Vancomycin
Text: Tables 42 and 43 set forth a subgroup analysis of diarrhea at TOC.

[4] = test system: C. difficile infection (CDI); experiment: CDI trial: enteric symptoms at TOC; type: in vivo, human
Text: Table 41 sets forth a summary of the enteric symptoms at TOC.

[5] = Rifaximin N = 109, Vancomycin N = 112
[6] = Rifaximin N = 117, Vancomycin N = 115
[7] = subgroup Age <65, Rifaximin N = 69, Vancomycin N = 62
[8] = subgroup Age >=65, Rifaximin N = 39, Vancomycin N = 49
[9] = subgroup Female, Rifaximin N = 68, Vancomycin N = 64
[10] = subgroup Male, Rifaximin N = 40, Vancomycin N = 47
[11] = Rifaximin N = 108, Vancomycin N = 111

CO[C@H]1/C=C/O[C@@]2(C)Oc3c(C)c(O)c4c(O)c(c5c(nc6cc(C)ccn65)c4c3C2=O)NC(=O)/C(C)=C\C=C\[C@H](C)[C@H](O)[C@@H](C)[C@@H](O)[C@@H](C)[C@H](OC(C)=O)[C@@H]1C [Rifaximin, (2S,16Z,18E,20S,21S,22R, 23R,24R,25S,26S,27S,28E)-5,6,21,23,25 Pentahydroxy-27-methoxy-2,4,11,16,20,22,24,26-octamethyl-2,7-(epoxypentadeca-(1,11,13)trienimino) benzofuro (4,5-e) pyrido(1,2,-a) benzimidazole-1,15(2H)-dione,25-acetate]
Diarrhea: No, number of subjects [1, 5]: 71
Diarrhea: No, percent of subjects [1, 5]: (65%)
Diarrhea: Yes, number of subjects [1, 5]: 38
Diarrhea: Yes, percent of subjects [1, 5]: (35%)
Clinical Success: No, number of subjects [1, 6]: 59
Clinical Success: No, percent of subjects [1, 6]: (50%)
Clinical Success: Yes, number of subjects [1, 6]: 58
Clinical Success: Yes, percent of subjects [1, 6]: (50%)
Clinical Success: Treatment Difference ([1]; Rifaximin vs Vancomycin): −10.4%
Diarrhea: Treatment Difference ([1]; Rifaximin vs Vancomycin): −8.1%
C. difficile infection, rate ([2]; All RFX Patients (n = 392), PEY = 510): (0.012) number of subjects/PEY
C. difficile infection, rate ([2]; RCT Patients, RFX (n = 140), PEY = 50): (0.040) number of subjects/PEY
Any infection, rate ([2]; human, in vivo): (0.072) number of subjects/PEY
Diarrhea, number of subjects [3, 7]: 16
Diarrhea, percent of subjects [3, 7]: (23%)
No Diarrhea, number of subjects [3, 7]: 53
No Diarrhea, percent of subjects [3, 7]: (77%)
Diarrhea, number of subjects [3, 8]: 6
Diarrhea, percent of subjects [3, 8]: (15%)
No Diarrhea, number of subjects [3, 8]: 33
No Diarrhea, percent of subjects [3, 8]: (85%)
Diarrhea, number of subjects [3, 9]: 14
Diarrhea, percent of subjects [3, 9]: (21%)
No Diarrhea, number of subjects [3, 9]: 54
No Diarrhea, percent of subjects [3, 9]: (79%)
Diarrhea, number of subjects [3, 10]: 8
Diarrhea, percent of subjects [3, 10]: (20%)
No Diarrhea, number of subjects [3, 10]: 32
No Diarrhea, percent of subjects [3, 10]: (80%)
Diarrhea at TOC: Treatment Difference ([3]; subgroup Age <65): −3.8%
Diarrhea at TOC: Treatment Difference ([3]; subgroup Age >=65): 3.0%
Diarrhea at TOC: Treatment Difference ([3]; subgroup Female): −3.4%
Diarrhea at TOC: Treatment Difference ([3]; subgroup Male): 1.3%
Diarrhea: No, number of subjects [4, 11]: 86
Diarrhea: No, percent of subjects [4, 11]: (80%)
Diarrhea: Yes, number of subjects [4, 11]: 22
Diarrhea: Yes, percent of subjects [4, 11]: (20%)
Fever: No, number of subjects [4, 11]: 98
Fever: No, percent of subjects [4, 11]: (91%)
Fever: Yes, number of subjects [4, 11]: 10
Fever: Yes, percent of subjects [4, 11]: (9%)
Severe Abdominal Pain/Discomfort: No, number of subjects [4, 11]: 80
Severe Abdominal Pain/Discomfort: No, percent of subjects [4, 11]: (74%)
Severe Abdominal Pain/Discomfort: Yes, number of subjects [4, 11]: 28
Severe Abdominal Pain/Discomfort: Yes, percent of subjects [4, 11]: (26%)
Diarrhea: Treatment Difference ([4]; Rifaximin vs Vancomycin): −1.5%
Fever: Treatment Difference ([4]; Rifaximin vs Vancomycin): −7.5%
Severe Abdominal Pain/Discomfort: Treatment Difference ([4]; Rifaximin vs Vancomycin): −11.5%
